In patent publication US10533010B2, “Substituted indole Mcl-1 inhibitors” (Vanderbilt University, priority 2014, dated 2020):
Read-outs that look alike come from different tables or passages of the source.

Target: recombinant Mcl-1 (residues 172-327) (Homo sapiens (Human), UniProt Q07820)
Assay: Fluorescence polarization anisotropy competition assay (FITC-Bak or FITC-Bim BH3 peptide) with Mcl-1
Format: binding
Conditions: Table 2, FITC-Bak or FITC-Bim peptide competition, Ki converted from IC50, read-out: Ki for Inhibition of Mcl-1

recombinant Mcl-1 (residues 172-327), sequence (Q07820 172-327): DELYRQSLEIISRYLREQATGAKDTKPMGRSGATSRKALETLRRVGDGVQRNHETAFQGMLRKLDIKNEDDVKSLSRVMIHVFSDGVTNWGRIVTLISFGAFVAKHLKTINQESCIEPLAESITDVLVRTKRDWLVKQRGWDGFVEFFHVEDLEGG

| Structure (SMILES) | Ki (Ki bins given in nM) [nM] | Ki (Ki bins given in μM) [nM] |
| --- | --- | --- |
| Cc1nn(C)c(C)c1-c1cccc2c(CCCOc3cccc4ccccc34)c(C(=O)Nc3cncc(C(=O)O)c3)[nH]c12 [I-194, 5-(3-(3-(naphthalen-1-yloxy)propyl)-7-(1,3,5-trimethyl-1H-pyrazol-4-yl)-1H-indole-2-carboxamido)nicotinic acid] | 51 to 100 |  |
| Cc1cc(OCCCc2c(C(=O)NCc3ccc(N4CCCC4)c(C(=O)O)c3)[nH]c3c(-c4c(C)nn(C)c4C)cccc23)cc(C)c1Cl [I-76, 5-((3-(3-(4-chloro-3,5-dimethylphenoxy)propyl)-7-(1,3,5-trimethyl-1H-pyrazol-4-yl)-1H-indole-2-carboxamido)methyl)-2-(pyrrolidin-1-yl)benzoic acid] | 51 to 100 |  |
| Cc1cc(OCCCc2c3n(c4c(-c5c(C)nn(C)c5C)c(Cl)ccc24)C(C)[C@@H](C)N(Cc2ccc(C(=O)O)cn2)C3=O)cc(C)c1Cl (stereo partly drawn) [I-146, 6-(((3R)-7-chloro-10-(3-(4-chloro-3,5-dimethylphenoxy)propyl)-3,4-dimethyl-1-oxo-6-(1,3,5-trimethyl-1H-pyrazol-4-yl)-3,4-dihydropyrazino[1,2-a]indol-2(1H)-yl)methyl)nicotinic acid] | < 50 |  |
| Cc1cc(OCCCc2c(C(=O)N3CCc4ccc(C(=O)O)cc43)[nH]c3c(-c4c(C)nn(C)c4C)c(Cl)ccc23)cc(C)c1Cl [I-192, 1-(6-chloro-3-(3-(4-chloro-3,5-dimethylphenoxy)propyl)-7-(1,3,5-trimethyl-1H-pyrazol-4-yl)-1H-indole-2-carbonyl)indoline-6-carboxylic acid] | < 50 |  |
| Cc1cc(OCCCc2c(C(=O)NC3CCN(C(=O)C(=O)O)CC3)[nH]c3c(-c4c(C)nn(C)c4C)cccc23)cc(C)c1Cl [I-319, 2-(4-(3-(3-(4-chloro-3,5-dimethylphenoxy)propyl)-7-(1,3,5-trimethyl-1H-pyrazol-4-yl)-1H-indole-2-carboxamido)piperidin-1-yl)-2-oxoacetic acid] | < 50 |  |
| Cc1cc(OCCCc2c(C(=O)Nc3ccc(C(=O)O)cc3)[nH]c3c(-c4cccnc4C)cccc23)cc(C)c1Cl [I-37, 4-(3-(3-(4-chloro-3,5-dimethylphenoxy)propyl)-7-(2-methylpyridin-3-yl)-1H-indole-2-carboxamido)benzoic acid] | < 50 |  |
| Cc1cc(OCCCc2c(C(=O)N[C@@H]3CCC[C@@H](C(=O)O)C3)[nH]c3c(-c4c(C)nn(C)c4C)c(Cl)ccc23)cc(C)c1Cl [I-322, (1R,3R)-3-(6-chloro-3-(3-(4-chloro-3,5-dimethylphenoxy)propyl)-7-(1,3,5-trimethyl-1H-pyrazol-4-yl)-1H-indole-2-carboxamido)cyclohexane-1-carboxylic acid] | < 50 |  |
| Cc1cc(OCCCc2c(C(=O)NCc3ccc(N4CCc5ccccc5C4)nc3)[nH]c3c(-c4c(C)nn(C)c4C)cccc23)cc(C)c1Cl [I-261, 3-(3-(4-chloro-3,5-dimethylphenoxy)propyl)-N-((6-(3,4-dihydroisoquinolin-2 (1H)-yl)pyridin-3-yl)methyl)-7-(1,3,5-trimethyl-1H-pyrazol-4-yl)-1H-indole-2-carboxamide] |  | 1000 to 9990 |
| Cc1cc(OCCCc2c(C(=O)N[C@H]3CCCC[C@H]3C(=O)O)[nH]c3c(-c4c(C)nn(C)c4C)c(Cl)ccc23)cc(C)c1Cl [I-333, (1R,2S)-2-(6-chloro-3-(3-(4-chloro-3,5-dimethylphenoxy)propyl)-7-(1,3,5-trimethyl-1H-pyrazol-4-yl)-1H-indole-2-carboxamido)cyclohexane-1-carboxylic acid] | < 50 |  |
| Cc1cc(OCCCc2c3n(c4c(-c5c(C)nn(C)c5C)c(Cl)ccc24)C[C@@H](C)N(Cc2ccc(C(=O)O)cc2)C3=O)cc(C)c1Cl [I-120, (R)-4-((7-chloro-10-(3-(4-chloro-3,5-dimethylphenoxy)propyl)-3-methyl-1-oxo-6-(1,3,5-trimethyl-1H-pyrazol-4-yl)-3,4-dihydropyrazino[1,2-a]indol-2(1H)-yl)methyl)benzoic acid] | < 50 |  |
| Cc1cc(OCCCc2c3n(c4c(-c5c(C)nn(C)c5C)c(Cl)ccc24)CCCN(c2cccc4c2ccn4C)C3=O)cc(C)c1Cl [I-247, 8-chloro-1-(3-(4-chloro-3,5-dimethylphenoxy)propyl)-2-(1-methyl-1H-indol-4-yl)-7-(1,3,5-trimethyl-1H-pyrazol-4-yl)-2,3,4,5-tetrahydro-1H-[1,4]diazepino[1,2-a]indol-1-one] | < 50 |  |
| Cc1cc(OCCCc2c(C(=O)N(C)Cc3ccc(C(=O)O)o3)n(C)c3c(-c4c(C)nn(C)c4C)cccc23)cc(C)c1Cl [I-269, 5-((3-(3-(4-chloro-3,5-dimethylphenoxy)propyl)-N,1-dimethyl-7-(1,3,5-trimethyl-1H-pyrazol-4-yl)-1H-indole-2-carboxamido)methyl)furan-2-carboxylic acid] | 101 to 299 |  |
| COC(=O)[C@H](CC(C)C)NC(=O)CNC(=O)c1[nH]c2c(-c3c(C)nn(C)c3C)cccc2c1CCCOc1cc(C)c(Cl)c(C)c1 [I-289, methyl (3-(3-(4-chloro-3,5-dimethylphenoxy)propyl)-7-(1,3,5-trimethyl-1H-pyrazol-4-yl)-1H-indole-2-carbonyl)glycyl-L-leucinate] |  | 10000 to 50000 |
| Cc1cc(OCCCc2c(C(=O)NCCS(=O)(=O)NC(=O)CC34CC5CC(CC(C5)C3)C4)[nH]c3ccccc23)cc(C)c1Cl [I-54, N-(2-(N-(2-((3r,5r,7r)-adamantan-1-yl)acetyl)sulfamoyl)ethyl)-3-(3-(4-chloro-3,5-dimethylphenoxy)propyl)-1H-indole-2-carboxamide] | 501 to 999 |  |
| CCOC(=O)c1ccc(N2CCN(C(=O)c3[nH]c4cc(Cl)ccc4c3CCCOc3cc(C)c(Cl)c(C)c3)CC2)cc1 [I-50, ethyl 4-(4-(6-chloro-3-(3-(4-chloro-3,5-dimethylphenoxy)propyl)-1H-indole-2-carbonyl)piperazin-1-yl)benzoate] |  | 10000 to 50000 |
| Cc1cc(OCCCc2c(C(=O)NCc3ccc(C(=O)N[C@@H](Cc4ccccc4)C(=O)O)o3)[nH]c3c(-c4c(C)nn(C)c4C)cccc23)cc(C)c1Cl [I-271, (5-((3-(3-(4-chloro-3,5-dimethylphenoxy)propyl)-7-(1,3,5-trimethyl-1H-pyrazol-4-yl)-1H-indole-2-carboxamido)methyl)furan-2-carbonyl)-L-phenylalanine] | < 50 |  |
| Cc1cc(OCCCc2c3n(c4c(-c5c(C)nn(C)c5C)c(Cl)ccc24)CCCN(c2cccc(C#N)c2)C3=O)cc(C)c1Cl [I-353, 3-(8-chloro-11-(3-(4-chloro-3,5-dimethylphenoxy)propyl)-1-oxo-7-(1,3,5-trimethyl-1H-pyrazol-4-yl)-4,5-dihydro-1H-[1,4]diazepino[1,2-a]indol-2(3H)-yl)benzonitrile] | 51 to 100 |  |
| Cc1cc(OCCCc2c(C(=O)N[C@H]3CCCC[C@H]3C(=O)O)[nH]c3c(-c4c(C)nn(C)c4C)cccc23)cc(C)c1Cl [I-316, (1R,2S)-2-(3-(3-(4-chloro-3,5-dimethylphenoxy)propyl)-7-(1,3,5-trimethyl-1H-pyrazol-4-yl)-1H-indole-2-carboxamido)cyclohexane-1-carboxylic acid] | < 50 |  |
| Cc1cc(OCCCc2c3n(c4c(-c5c(C)nn(C)c5C)c(Cl)ccc24)CCCN(c2cc(C(=O)O)cc(Cl)n2)C3=O)cc(C)c1Cl [I-230, 2-chloro-6-(8-chloro-11-(3-(4-chloro-3,5-dimethylphenoxy)propyl)-1-oxo-7-(1,3,5-trimethyl-1H-pyrazol-4-yl)-4,5-dihydro-1H-[1,4]diazepino[1,2-a]indol-2(3H)-yl)isonicotinic acid] | < 50 |  |
| Cc1cc(OCCCc2c(C(=O)NCc3cc(C(=O)O)c(CN4CCc5ccccc5C4)o3)[nH]c3c(-c4c(C)nn(C)c4C)cccc23)cc(C)c1Cl [I-293, 5-((3-(3-(4-chloro-3,5-dimethylphenoxy)propyl)-7-(1,3,5-trimethyl-1H-pyrazol-4-yl)-1H-indole-2-carboxamido)methyl)-2-((3,4-dihydroisoquinolin-2(1H)-yl)methyl)furan-3-carboxylic acid] | < 50 |  |
| Cc1cc(OCCCc2c(C(=O)N3CCC[C@H]3C(=O)O)[nH]c3c(-c4c(C)nn(C)c4C)c(Cl)ccc23)cc(C)c1Cl [I-337, (6-chloro-3-(3-(4-chloro-3,5-dimethylphenoxy)propyl)-7-(1,3,5-trimethyl-1H-pyrazol-4-yl)-1H-indole-2-carbonyl)-L-proline] | < 50 |  |
| Cc1cc(OCCCc2c(C(=O)N3CCN(c4ccc(C(=O)O)cc4)CC3)n(Cc3ccccc3)c3c(-c4c(C)nn(C)c4C)c(Cl)ccc23)cc(C)c1Cl [I-342, 4-(4-(1-benzyl-6-chloro-3-(3-(4-chloro-3,5-dimethylphenoxy)propyl)-7-(1,3,5-trimethyl-1H-pyrazol-4-yl)-1H-indole-2-carbonyl)piperazin-1-yl)benzoic acid] | 51 to 100 |  |
| Cc1cc(OCCCc2c(C(=O)NCc3ccc(C(=O)NCc4ccccc4C(F)(F)F)o3)[nH]c3ccccc23)cc(C)c1Cl [I-58, 3-(3-(4-chloro-3,5-dimethylphenoxy)propyl)-N-((5-((2-(trifluoromethyl)benzyl)carbamoyl)furan-2-yl)methyl)-1H-indole-2-carboxamide] | 101 to 299 |  |
| Cc1cc(OCCCc2c3n(c4c(-c5c(C)nn(C)c5C)c(Cl)ccc24)CCN(Cc2cccc(C(=O)O)c2)C3=O)cc(C)c1Cl [I-141, 3-((7-chloro-10-(3-(4-chloro-3,5-dimethylphenoxy)propyl)-1-oxo-6-(1,3,5-trimethyl-1H-pyrazol-4-yl)-3,4-dihydropyrazino[1,2-a]indol-2(1H)-yl)methyl)benzoic acid] | < 50 |  |
| Cc1cc(OCCCc2c(C(=O)N3CCN(c4ccc(C(=O)O)cc4)CC3)n(Cc3ccncc3)c3c(-c4c(C)nn(C)c4C)c(Cl)ccc23)cc(C)c1Cl [I-340, 4-(4-(6-chloro-3-(3-(4-chloro-3,5-dimethylphenoxy)propyl)-1-(pyridin-4-ylmethyl)-7-(1,3,5-trimethyl-1H-pyrazol-4-yl)-1H-indole-2-carbonyl)piperazin-1-yl)benzoic acid] | 51 to 100 |  |
